Measurements: ChEMBL document CHEMBL5113406, “Structure-based discovery and development of novel O-GlcNAcase inhibitors for the treatment of Alzheimer's disease” (Eur J Med Chem, 2022)
Active and inactive are the calls of the source. The calls are words filed in the database; no cut-off is given here.

What was measured:
Mus musculus [1] = assay: Neuroprotective activity against amyloid beta (1 to 42)-induced cognitive impairement in ICR mouse assessed as […] spontaneous alteration at 50 mg/kg, ip for 3 days by Y-maze test; assay type: functional, organism-based; details: time 3.0 day
[2] = Cytotoxicity against mouse HT-22 cells assessed as cell viability at 10 uM after 18 hrs by MTT assay; assay type: toxicity, cell-based; details: read-out: Activity
Mus musculus [3] = organism: Mus musculus; details: ICR, dose 50.0 mg/kg, route ip, time 3.0 day
[4] = biological target: T1, Hexosaminidase D (Homo sapiens) (UniProt Q8WVB3); assay: Inhibition of human recombinant beta-hexosaminidase at 10 uM pretreated with compound followed by 4-nitrophenyl Nacetyl-beta-D-glucosaminide substrate addition by fluorometer
T1 sequence (whole entry): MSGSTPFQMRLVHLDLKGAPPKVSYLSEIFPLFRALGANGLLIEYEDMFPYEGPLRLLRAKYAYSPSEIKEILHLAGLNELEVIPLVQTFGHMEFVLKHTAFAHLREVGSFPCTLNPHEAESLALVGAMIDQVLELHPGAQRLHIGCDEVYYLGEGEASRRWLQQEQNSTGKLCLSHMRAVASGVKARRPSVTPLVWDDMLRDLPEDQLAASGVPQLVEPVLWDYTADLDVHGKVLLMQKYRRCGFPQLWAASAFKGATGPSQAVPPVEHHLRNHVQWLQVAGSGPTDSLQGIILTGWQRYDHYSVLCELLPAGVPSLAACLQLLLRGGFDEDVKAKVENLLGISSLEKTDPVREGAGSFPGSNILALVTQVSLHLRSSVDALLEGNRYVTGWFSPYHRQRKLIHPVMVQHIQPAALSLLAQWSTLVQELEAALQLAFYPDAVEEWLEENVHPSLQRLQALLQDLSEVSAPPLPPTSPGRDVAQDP

[5] = AUClast in ICR mouse brain at 50 mg/kg, ip after 24 hrs by LC-MS/MS analysis; assay type: ADME, organism-based; parameters: dose 50 mg/kg, time 24 hrs, route ip
Brain [6] = assay: Anti-alzheimer activity in mouse model assessed as decrease in amyloid beta level in brain at 50 mg/kg, ip for 3 days by ELISA relative to control; assay type: functional; details: 72 h, time 3 day
[7] = AUClast in ICR mouse plasma at 50 mg/kg, ip after 24 hrs by LC-MS/MS analysis; assay type: ADME, organism-based; parameters: dose 50 mg/kg, time 24 hrs, route ip
[8] = Ratio of drug level in ICR mouse brain to plasma at 50 mg/kg, ip after 24 hrs by LC-MS/MS analysis; assay type: ADME, organism-based; details: brain and plasma, read-out: BPR
Mus musculus [9] = assay: Neuroprotective activity against amyloid beta (1 to 42)-induced cognitive impairement in ICR mouse assessed as spontaneous alteration at 20 mg/kg, ip for 3 days by Y-maze test; assay type: functional, organism-based; details: time 3.0 day
[10] = AUClast in ICR mouse plasma at 20 mg/kg, ip after 24 hrs by LC-MS/MS analysis; assay type: ADME, organism-based; parameters: dose 20 mg/kg, time 24 hrs, route ip
Brain [11] = assay: Anti-alzheimer activity in mouse model assessed as decrease in amyloid beta level in brain at 20 mg/kg, ip for 3 days by ELISA relative to control; assay type: functional; details: 72 h, time 3 day
[12] = AUCt in ICR mouse plasma at 20 mg/kg, ip after 24 hrs by LC-MS/MS analysis; assay type: ADME, organism-based; parameters: time 24 hrs, dose 20 mg/kg, route ip
[13] = AUClast in ICR mouse brain at 20 mg/kg, ip after 24 hrs by LC-MS/MS analysis; assay type: ADME, organism-based; parameters: time 24 hrs, dose 20 mg/kg, route ip
[14] = Cmax in ICR mouse plasma at 20 mg/kg, ip after 24 hrs by LC-MS/MS analysis; assay type: ADME, organism-based; parameters: dose 20 mg/kg, time 24 hrs, route ip
Brain [15] = assay: Anti-alzheimer activity in mouse model assessed as decrease in amyloid beta level in brain at 2 mg/kg, ip for 3 days by ELISA relative to control; assay type: functional; details: 72 h, time 3 day
[16] = Half life in ICR mouse plasma at 20 mg/kg, ip after 24 hrs by LC-MS/MS analysis; assay type: ADME, organism-based
[17] = Ratio of drug level in ICR mouse brain to plasma at 20 mg/kg, ip after 24 hrs by LC-MS/MS analysis; assay type: ADME, organism-based; details: brain and plasma, read-out: BPR
Mus musculus [18] = assay: In vivo inhibition of OGA in amyloid-beta-induced ICR mouse assessed as decrease in 4-MUF level at 2 to 20 mg/kg, ip for 3 days by fluorescence analysis; assay type: functional, organism-based; details: dose 2-20 mg/kg, time 3.0 day
[19] = Tmax in ICR mouse plasma at 20 mg/kg, ip after 24 hrs by LC-MS/MS analysis; assay type: ADME, organism-based
[20] = AUCinfinity in ICR mouse plasma at 20 mg/kg, ip after 24 hrs by LC-MS/MS analysis; assay type: ADME, organism-based; parameters: time 24 hrs, dose 20 mg/kg, route ip
Protein O-GlcNAcase = biological target: T2, Protein O-GlcNAcase (Homo sapiens, UniProt O60502); assay: Inhibition of human recombinant OGA pretreated for 20 mins followed by 4-Methylumbelliferyl N-acetyl-(3-D-glucosaminide substrate addition by fluorometer
T2 sequence (O60502 whole entry): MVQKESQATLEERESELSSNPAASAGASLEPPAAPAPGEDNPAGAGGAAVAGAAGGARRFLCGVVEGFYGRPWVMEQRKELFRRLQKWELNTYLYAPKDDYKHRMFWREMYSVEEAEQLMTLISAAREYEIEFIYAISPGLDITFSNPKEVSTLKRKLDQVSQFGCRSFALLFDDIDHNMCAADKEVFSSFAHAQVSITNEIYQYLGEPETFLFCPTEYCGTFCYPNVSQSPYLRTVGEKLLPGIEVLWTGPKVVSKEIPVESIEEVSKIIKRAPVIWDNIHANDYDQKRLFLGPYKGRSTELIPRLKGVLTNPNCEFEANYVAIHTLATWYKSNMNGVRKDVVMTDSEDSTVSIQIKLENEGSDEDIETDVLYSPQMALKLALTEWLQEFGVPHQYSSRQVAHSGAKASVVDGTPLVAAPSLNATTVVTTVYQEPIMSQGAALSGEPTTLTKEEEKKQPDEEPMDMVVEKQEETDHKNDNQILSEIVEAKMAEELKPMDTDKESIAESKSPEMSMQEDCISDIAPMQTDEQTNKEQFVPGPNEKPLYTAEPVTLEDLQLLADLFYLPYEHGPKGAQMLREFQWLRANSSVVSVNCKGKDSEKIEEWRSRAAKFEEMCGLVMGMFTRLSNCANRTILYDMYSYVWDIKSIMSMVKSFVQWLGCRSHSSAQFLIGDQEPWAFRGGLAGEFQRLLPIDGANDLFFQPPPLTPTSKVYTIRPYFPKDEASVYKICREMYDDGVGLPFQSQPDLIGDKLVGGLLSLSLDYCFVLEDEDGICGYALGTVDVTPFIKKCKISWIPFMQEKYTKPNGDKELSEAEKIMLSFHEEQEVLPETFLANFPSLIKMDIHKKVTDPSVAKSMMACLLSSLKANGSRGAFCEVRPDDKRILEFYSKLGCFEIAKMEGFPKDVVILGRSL

Row | SMILES | viability at 18 h, 10 µM [2] [%] | inhibition [4] [%] | IC50 (Protein O-GlcNAcase) [nM] | other results
1 | CCNC1=N[C@@H]2[C@@H](O)[C@H](O)[C@@H](CO)O[C@@H]2S1 | 95.9 | 91.6 |  | Activity (Mus musculus [1]): Active; inhibition (Mus musculus [3]): Active; AUC(0-t) at 24 h [5]: 590 ng·h/mL; inhibition in vivo at 50 mg/kg (Brain [6]): 62.8%; AUC(0-t) at 24 h [7]: 10000 ng·h/mL; Kp at 24 h [8]: 0.07
2 | CC(=O)Nc1ncc(CN2CCN(CC(=O)Nc3ccc(Cl)cc3)CC2C)s1 (centres undefined) | 111 | 92.4 |  | Activity (Mus musculus [9]): Active; AUC(0-t) at 24 h [10]: 2960 ng·h/mL; inhibition in vivo at 20 mg/kg (Brain [11]): 71.8%; AUC(0-t) at 24 h [12]: 4980 ng·h/mL; AUC(0-t) at 24 h [13]: 590 ng·h/mL; Cmax [14]: 3200 ng/mL; inhibition in vivo at 2 mg/kg (Brain [15]): 42%; half-life [16]: 91.8 min; Kp at 24 h [17]: 0.2; inhibition (Mus musculus [18]): Active; Tmax [19]: 21.6 min; AUC(0-inf) [20]: 5210 ng·h/mL
3 | CC(=O)Nc1ncc(CN2CCC(C(=O)Nc3ccc(C)cc3)CC2)s1 |  |  | 300 | 
4 | CC(=O)Nc1ncc(CN2CCN(CC(=O)Nc3ccccn3)CC2)s1 |  |  | 1400 | 
5 | CC(=O)Nc1ncc(CN2CCCC(C(=O)NC3CCCCC3)C2)s1 (centres undefined) |  |  | 230 | 
6 | CC(=O)Nc1ncc(CN2CCN(CC(=O)Nc3ccc(N4CCN(C(C)=O)CC4)cc3)CC2C)s1 (centres undefined) | 94.4 | 73.5 |  | 
7 | CC(=O)Nc1ncc(CN2CCN(CC(=O)Nc3ccc(Cc4ccccc4)cc3)CC2)s1 | 140 | 101 |  | 
8 | CC(=O)Nc1ncc(CN2CCCC(C(=O)Nc3ccc(F)cc3)C2)s1 (centres undefined) | 120 | 92.5 |  | 
9 | CC(=O)Nc1ncc(CN2CCC(C(=O)Nc3ccc(F)cc3)CC2)s1 |  |  | 160 | 
10 | CC(=O)N[C@H]1/C(=N\OC(=O)Nc2ccccc2)O[C@H](CO)[C@@H](O)[C@@H]1O | 102 | 7.6 |  | 
11 | CC(=O)Nc1ncc(CN2CCN(CC(=O)NC3CCCCC3)CC2C)s1 (centres undefined) | 123 | 101 |  | 
12 | CC(=O)Nc1ncc(CN2CCCC(C(=O)Nc3ccccc3)C2)s1 (centres undefined) |  |  | 450 | 
13 | CC(=O)Nc1ncc(CN2CCN(CC(=O)Nc3ccccc3)CC2C)s1 (centres undefined) | 98.6 | 103 |  | 
14 | CC(=O)Nc1ncc(CN2CCC(=CC(=O)NC3CCCCC3)CC2)s1 |  |  | 280 | 
15 | COc1ccc(CNC(=O)C=C2CCN(Cc3cnc(NC(C)=O)s3)CC2)cc1 | 109 | 89.6 |  | 
16 | CC(=O)Nc1ncc(CN2CCN(CC(=O)Nc3ccc(Cc4ccccc4)cc3)CC2C)s1 (centres undefined) | 136 | 106 |  | 
